Among the test systems are A498; HL-60; HOP-92; HT-29; KM12; M14; NCI-H226; NCI-H23; OVCAR-3; OVCAR-8; RXF 393; SK-MEL-28; SK-MEL-2; SK-MEL-5; SNB-75; SR; SW-620; U-251; DU-145.
What all share (test): DTP human tumour cell line panel, 48 h

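Five compound concentrations were applied to cells in 96-well plates for 48 hours; endpoints were derived by simple linear interpolation of the resulting dose-response curve. Abbreviation: GI50, concentration required for 50% inhibition of growth.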 Calls of active or inactive are those of the source. Cut-off read from the data, not from the text of the source: active = GI50 up to about 1.1 µM and inactive = higher.

By GI50 is commonly meant the concentration that inhibits growth by half. On to `CCOC(=O)C1(c2ccccc2)CCCNCC1` (stereo not given), for which the GI50 in the assay with A498 was 45.8 µM (inactive); in the assay with HL-60 it was 98.4 µM (inactive); in the assay with HOP-92 it was 75.2 µM (inactive); in the assay with HT-29, 77.8 µM (inactive); in the assay on KM12, > 100 µM (inactive); in the assay with M14, > 100 µM (inactive). The GI50 in the assay on NCI-H226 was > 100 µM (inactive); in the assay with NCI-H23 it was 35.3 µM (inactive); in the assay on OVCAR-3, 74.6 µM (inactive); with OVCAR-8, 39.4 µM (inactive); in the assay on RXF 393, > 100 µM (inactive); with SK-MEL-28 it was > 100 µM (inactive). In addition, the GI50 in the assay with SK-MEL-2 is > 100 µM (inactive); with SK-MEL-5, 50.7 µM (inactive); in the assay with SNB-75 it was > 100 µM (inactive); in the assay on SR it was 33.1 µM (inactive); in the assay with SW-620, > 100 µM (inactive); in the assay with U-251 it was > 100 µM (inactive).

Consider `CCN1CC2=C(N=c3s/c(=C\c4ccc(Cl)cc4)c(=O)n3C2c2ccc(Cl)cc2)/C(=C/c2ccc(Cl)cc2)C1` (stereo not given), for which the GI50 was 24.6 µM (inactive) in the assay on A498; > 100 µM (inactive) in the assay on DU-145; > 100 µM (inactive) with HL-60; > 100 µM (inactive) with HT-29; > 100 µM (inactive) in the assay on KM12; 73.1 µM (inactive) in the assay with M14. In addition, the GI50 in the assay with NCI-H226 is 37 µM (inactive); in the assay on NCI-H23, 63.1 µM (inactive); with OVCAR-3 it was > 100 µM (inactive); in the assay with OVCAR-8 it was > 100 µM (inactive); in the assay on RXF 393, 2.47 µM (inactive); with SK-MEL-28, > 100 µM (inactive). Moreover, the GI50 with SK-MEL-2 is 26.6 µM (inactive); in the assay on SK-MEL-5 it was > 100 µM (inactive); with SNB-75 it was 2.37 µM (inactive); with SW-620, > 100 µM (inactive); in the assay on U-251, 20.8 µM (inactive).

As to `C=C1C2C[C@@H]3O[C@H]4C[C@H]5O[C@@]6(C[C@@H]7O[C@]8(C[C@H](C)[C@@H]9O[C@@H]%10CC(CO)O[C@@H]%10C[C@@H]9O8)C[C@H](C)[C@@H]7O6)C[C@H]5O[C@H]4[C@H](C)[C@H]3OC(=O)C[C@H]3CC[C@@H]4OC5[C@H]6O[C@]7(CC[C@H]8CC(=C)[C@H](CC[C@@H](C[C@H]1C)O2)O8)CC6O[C@@H]5[C@@H](O7)[C@H]4O3` (stereo not given in full), the GI50 with A498 was 0.000502 µM (active); in the assay on DU-145 it was < 0.0001 µM (active); with HOP-92, < 0.0001 µM (active); in the assay with KM12 it was < 0.0001 µM (active); in the assay on M14 it was < 0.0001 µM (active); with NCI-H226 it was < 0.0001 µM (active). For the same molecule, the 50% growth inhibitory concentration (GI50) in the assay on NCI-H23, with OVCAR-3, in the assay with OVCAR-8, with RXF 393, in the assay with SK-MEL-2 and with SK-MEL-5 was < 0.0001 µM (active) in each case. Besides, the GI50 in the assay on SNB-75, in the assay on SR, with SW-620 and in the assay on U-251 was < 0.0001 µM (active) throughout.

Regarding `Nc1nc(N)c2cc(Sc3cccc(C(F)(F)F)c3)ccc2n1` [WR-159412], the GI50 in the assay on DU-145 was 0.982 µM (active); in the assay on HL-60, 1.62 µM (inactive); with HOP-92, 2.94 µM (inactive); in the assay on HT-29, 3.62 µM (inactive); with KM12, 2.59 µM (inactive); in the assay with M14, 1.14 µM (inactive). The GI50 is 2.99 µM (inactive) in the assay with NCI-H23; 3.87 µM (inactive) in the assay on OVCAR-3; 4.46 µM (inactive) with SK-MEL-28; 2.23 µM (inactive) in the assay with SK-MEL-2; 3.71 µM (inactive) in the assay on SK-MEL-5; 3.17 µM (inactive) in the assay on SNB-75. Moreover, the values for the GI50 in the assay with SR and in the assay with U-251 were 0.843 µM (active) and 0.771 µM (active), respectively.

These data come from ChEMBL document CHEMBL1201862, “PubChem BioAssay data set” (2004).
